Measurements reported in PubChem BioAssay AID652112 (The Scripps Research Institute Molecular Screening Center, 2013).

Target: Serine/threonine-protein phosphatase PP1-alpha catalytic subunit (Homo sapiens) (UniProt P62136)
Assay: PP1 inhibitor potency on phosphorylase dephosphorylation, dose response, orthogonal assay for PP1 inhibitor probe project, biochemical, radiolabel, phosphorylase substrate, powder samples (AID 652112)
Conditions: purified PP1, 32P/33P-phosphorylase dephosphorylation, scintillation

Sequence of Serine/threonine-protein phosphatase PP1-alpha catalytic subunit (Homo sapiens) (P62136 whole entry, looked up): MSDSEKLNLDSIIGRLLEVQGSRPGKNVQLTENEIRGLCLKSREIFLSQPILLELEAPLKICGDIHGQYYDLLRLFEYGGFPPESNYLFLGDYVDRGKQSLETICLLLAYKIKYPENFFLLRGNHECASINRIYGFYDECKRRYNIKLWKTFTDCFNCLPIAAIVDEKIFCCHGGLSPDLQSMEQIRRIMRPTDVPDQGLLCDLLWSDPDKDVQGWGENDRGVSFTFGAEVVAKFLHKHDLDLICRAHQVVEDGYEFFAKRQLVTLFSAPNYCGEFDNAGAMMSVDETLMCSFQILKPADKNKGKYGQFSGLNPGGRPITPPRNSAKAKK

Row | Structure (SMILES) | IC50
1 | COc1ccc(NC(=O)C2C3CCC(O3)C2C(=O)O)c(OC)c1 (stereo not given) | 18.9 µM
2 | CCOC(=O)c1sc2nc3c(SCC(=O)O)cc(C(=O)c4cc(F)ccc4O)cn3c(=O)c2c1C | 8.54 µM
3 | N#Cc1c(-c2ccc(Cl)cc2)cc(-c2cccs2)nc1SCC(=O)O | 21.9 µM
4 | CCn1c2ccccc2c2cc(NC(=O)COC(=O)c3ccc(NC(=O)CC#N)cc3)ccc21 | 38 µM
5 | CN1CCN(C(c2ccccn2)c2cc(Cl)c3cccnc3c2O)CC1 (stereo not given) | 4.89 µM
